Ki and IC50 data for three compounds are collected here from ChEMBL document CHEMBL1135518 (J Med Chem, 2002).

Each structure is given as a SMILES string. pIC50, pKi: −log10 of the molar value.

In experiment [1] the target is T1, 5-hydroxytryptamine receptor 1A (Homo sapiens, UniProt P08908).
T1 sequence (P08908 whole entry): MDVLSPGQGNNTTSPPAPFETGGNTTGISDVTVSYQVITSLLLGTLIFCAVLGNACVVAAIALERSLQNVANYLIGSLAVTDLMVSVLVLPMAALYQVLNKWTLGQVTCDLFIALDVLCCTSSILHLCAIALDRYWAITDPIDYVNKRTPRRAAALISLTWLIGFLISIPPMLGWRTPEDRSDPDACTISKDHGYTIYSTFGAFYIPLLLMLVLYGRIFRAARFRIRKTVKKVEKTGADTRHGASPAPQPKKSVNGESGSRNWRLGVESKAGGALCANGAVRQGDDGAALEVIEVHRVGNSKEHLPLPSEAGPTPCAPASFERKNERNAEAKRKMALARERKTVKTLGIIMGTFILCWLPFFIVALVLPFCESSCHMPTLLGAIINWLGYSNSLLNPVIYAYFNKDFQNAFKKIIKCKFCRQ
As to the kind of experiment: The binding affinity at the 5-hydroxytryptamine 1A receptor determined using [3H]5-CT.

The target of experiment [2] is 5-hydroxytryptamine receptor 2A (Rattus norvegicus, UniProt P14842). As to the kind of experiment: The binding affinity at 5-hydroxytryptamine 2A receptor was determined using [3H]ketanserin.
Experiment [3] addresses T2, Adrenergic receptor alpha-1 (Rattus norvegicus, UniProt P15823+P23944+P43140).
T2 sequence (P15823 whole entry): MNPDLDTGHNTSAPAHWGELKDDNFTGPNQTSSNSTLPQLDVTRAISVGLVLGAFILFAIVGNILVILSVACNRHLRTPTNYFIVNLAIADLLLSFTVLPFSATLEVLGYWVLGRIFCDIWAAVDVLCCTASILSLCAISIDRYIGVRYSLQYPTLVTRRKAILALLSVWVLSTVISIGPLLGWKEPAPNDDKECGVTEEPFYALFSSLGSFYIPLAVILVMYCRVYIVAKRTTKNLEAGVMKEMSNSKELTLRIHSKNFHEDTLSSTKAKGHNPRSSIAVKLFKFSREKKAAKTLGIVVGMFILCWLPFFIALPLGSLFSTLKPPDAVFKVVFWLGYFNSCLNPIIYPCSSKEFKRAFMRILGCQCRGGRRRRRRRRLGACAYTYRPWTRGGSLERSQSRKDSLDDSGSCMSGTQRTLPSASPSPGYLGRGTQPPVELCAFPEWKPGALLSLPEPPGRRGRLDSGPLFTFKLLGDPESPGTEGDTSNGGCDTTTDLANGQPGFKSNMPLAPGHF
T2 sequence (P23944 whole entry): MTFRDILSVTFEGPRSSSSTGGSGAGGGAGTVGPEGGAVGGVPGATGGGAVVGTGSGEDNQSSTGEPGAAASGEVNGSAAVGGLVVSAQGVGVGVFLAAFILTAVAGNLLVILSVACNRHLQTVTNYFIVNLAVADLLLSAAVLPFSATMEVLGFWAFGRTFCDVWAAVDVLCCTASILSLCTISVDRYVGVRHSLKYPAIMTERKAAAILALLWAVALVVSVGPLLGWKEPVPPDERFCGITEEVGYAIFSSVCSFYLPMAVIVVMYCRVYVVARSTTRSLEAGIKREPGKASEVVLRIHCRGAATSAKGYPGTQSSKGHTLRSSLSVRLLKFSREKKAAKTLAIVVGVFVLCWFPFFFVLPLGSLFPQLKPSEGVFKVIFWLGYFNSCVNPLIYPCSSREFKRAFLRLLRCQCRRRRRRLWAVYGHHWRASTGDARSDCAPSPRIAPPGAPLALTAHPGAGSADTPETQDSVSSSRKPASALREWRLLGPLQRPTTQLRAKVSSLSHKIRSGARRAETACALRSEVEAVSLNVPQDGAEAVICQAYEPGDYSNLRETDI
T2 sequence (P43140 whole entry): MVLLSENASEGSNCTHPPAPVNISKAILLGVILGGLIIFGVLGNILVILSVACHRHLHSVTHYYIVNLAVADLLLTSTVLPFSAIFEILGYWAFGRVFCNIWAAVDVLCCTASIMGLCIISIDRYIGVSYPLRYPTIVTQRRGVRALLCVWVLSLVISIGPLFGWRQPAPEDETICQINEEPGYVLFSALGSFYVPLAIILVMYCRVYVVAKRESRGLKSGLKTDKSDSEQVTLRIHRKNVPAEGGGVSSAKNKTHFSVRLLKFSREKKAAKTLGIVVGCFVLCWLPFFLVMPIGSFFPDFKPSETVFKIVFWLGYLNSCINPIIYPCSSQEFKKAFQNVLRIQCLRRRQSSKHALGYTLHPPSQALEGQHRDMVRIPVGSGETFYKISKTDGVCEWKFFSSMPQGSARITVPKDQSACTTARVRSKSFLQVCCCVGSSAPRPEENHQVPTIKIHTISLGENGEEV
Description: The binding affinity at Alpha-1 adrenergic receptor determined using [3H]prazosin. The class given is protein assay.

Another experiment addresses D(2) dopamine receptor (Rattus norvegicus, UniProt P61169). As to the kind of experiment: The binding affinity at the Dopamine receptor D2 determined using [3H]spiperone.
A further experiment addresses T3, D(4) dopamine receptor (Homo sapiens, UniProt P21917).
T3 sequence (P21917 whole entry): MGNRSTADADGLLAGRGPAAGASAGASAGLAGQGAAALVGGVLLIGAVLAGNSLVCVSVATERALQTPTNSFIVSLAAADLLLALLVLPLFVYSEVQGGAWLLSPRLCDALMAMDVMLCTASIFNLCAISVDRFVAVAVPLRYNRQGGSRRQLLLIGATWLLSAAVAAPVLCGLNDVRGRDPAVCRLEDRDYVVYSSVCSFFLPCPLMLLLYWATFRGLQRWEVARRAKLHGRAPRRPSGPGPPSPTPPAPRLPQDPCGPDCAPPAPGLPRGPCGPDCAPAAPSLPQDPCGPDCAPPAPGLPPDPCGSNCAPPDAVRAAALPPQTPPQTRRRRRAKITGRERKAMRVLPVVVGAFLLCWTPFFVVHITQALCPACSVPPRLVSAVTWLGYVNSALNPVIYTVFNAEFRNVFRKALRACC
As to the kind of experiment: The binding affinity at the Dopamine receptor D4 determined using [3H]YM-09151-2.

Experiment [4] has as its target Norepinephrine transporter (Rattus norvegicus, UniProt Q9WTR4). Description: The binding affinity at the Norepinephrine transporter reuptake sites determined using competition binding assay.
Experiment [5] has as its target Sodium-dependent serotonin transporter (Rattus norvegicus, UniProt P31652). As to the kind of experiment: The binding affinity at the 5-HT reuptake sites determined using competition binding assay.
For another experiment, the target named is D(3) dopamine receptor (Homo sapiens, UniProt P35462). As to the kind of experiment: The binding affinity at the Dopamine receptor D3 determined using [3H]spiperone.
Chain of D(3) dopamine receptor (P35462 whole entry): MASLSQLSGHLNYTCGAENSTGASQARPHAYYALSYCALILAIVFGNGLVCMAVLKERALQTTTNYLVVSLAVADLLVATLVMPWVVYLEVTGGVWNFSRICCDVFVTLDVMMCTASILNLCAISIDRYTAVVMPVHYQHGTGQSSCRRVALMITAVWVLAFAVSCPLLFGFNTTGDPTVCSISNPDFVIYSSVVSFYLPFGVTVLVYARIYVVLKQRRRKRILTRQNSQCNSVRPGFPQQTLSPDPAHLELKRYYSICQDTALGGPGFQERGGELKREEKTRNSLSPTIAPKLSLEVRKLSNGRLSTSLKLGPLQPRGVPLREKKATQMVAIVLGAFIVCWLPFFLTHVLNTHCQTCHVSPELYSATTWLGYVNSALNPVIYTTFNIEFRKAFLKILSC

Chain of Norepinephrine transporter (Q9WTR4 whole entry): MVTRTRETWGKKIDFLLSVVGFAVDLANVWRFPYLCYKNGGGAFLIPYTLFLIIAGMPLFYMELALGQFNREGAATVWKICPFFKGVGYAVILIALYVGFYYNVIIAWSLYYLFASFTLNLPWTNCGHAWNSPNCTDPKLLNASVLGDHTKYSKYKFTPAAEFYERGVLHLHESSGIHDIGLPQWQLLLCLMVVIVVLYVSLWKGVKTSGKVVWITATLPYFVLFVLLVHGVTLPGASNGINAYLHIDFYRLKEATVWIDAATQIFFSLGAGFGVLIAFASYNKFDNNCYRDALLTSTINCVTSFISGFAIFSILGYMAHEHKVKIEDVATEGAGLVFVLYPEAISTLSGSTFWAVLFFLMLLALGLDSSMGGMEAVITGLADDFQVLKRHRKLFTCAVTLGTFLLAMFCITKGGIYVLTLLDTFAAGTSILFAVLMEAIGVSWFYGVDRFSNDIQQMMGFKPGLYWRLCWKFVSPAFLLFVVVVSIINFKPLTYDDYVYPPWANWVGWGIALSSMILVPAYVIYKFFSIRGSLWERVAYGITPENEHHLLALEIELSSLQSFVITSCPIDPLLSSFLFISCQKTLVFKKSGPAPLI
Chain of 5-hydroxytryptamine receptor 2A (P14842 whole entry): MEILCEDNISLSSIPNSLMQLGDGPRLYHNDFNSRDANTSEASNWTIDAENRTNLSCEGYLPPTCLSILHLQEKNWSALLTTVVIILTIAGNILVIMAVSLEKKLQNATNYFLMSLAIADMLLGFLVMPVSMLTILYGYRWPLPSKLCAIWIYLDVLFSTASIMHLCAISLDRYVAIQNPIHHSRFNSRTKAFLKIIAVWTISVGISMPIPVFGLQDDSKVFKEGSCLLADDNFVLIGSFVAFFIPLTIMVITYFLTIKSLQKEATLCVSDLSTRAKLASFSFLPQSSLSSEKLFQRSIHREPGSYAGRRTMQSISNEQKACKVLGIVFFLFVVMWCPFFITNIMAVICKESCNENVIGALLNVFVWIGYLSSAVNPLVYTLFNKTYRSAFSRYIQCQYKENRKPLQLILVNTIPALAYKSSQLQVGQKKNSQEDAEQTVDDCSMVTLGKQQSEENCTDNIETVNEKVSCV
Chain of Sodium-dependent serotonin transporter (P31652 whole entry): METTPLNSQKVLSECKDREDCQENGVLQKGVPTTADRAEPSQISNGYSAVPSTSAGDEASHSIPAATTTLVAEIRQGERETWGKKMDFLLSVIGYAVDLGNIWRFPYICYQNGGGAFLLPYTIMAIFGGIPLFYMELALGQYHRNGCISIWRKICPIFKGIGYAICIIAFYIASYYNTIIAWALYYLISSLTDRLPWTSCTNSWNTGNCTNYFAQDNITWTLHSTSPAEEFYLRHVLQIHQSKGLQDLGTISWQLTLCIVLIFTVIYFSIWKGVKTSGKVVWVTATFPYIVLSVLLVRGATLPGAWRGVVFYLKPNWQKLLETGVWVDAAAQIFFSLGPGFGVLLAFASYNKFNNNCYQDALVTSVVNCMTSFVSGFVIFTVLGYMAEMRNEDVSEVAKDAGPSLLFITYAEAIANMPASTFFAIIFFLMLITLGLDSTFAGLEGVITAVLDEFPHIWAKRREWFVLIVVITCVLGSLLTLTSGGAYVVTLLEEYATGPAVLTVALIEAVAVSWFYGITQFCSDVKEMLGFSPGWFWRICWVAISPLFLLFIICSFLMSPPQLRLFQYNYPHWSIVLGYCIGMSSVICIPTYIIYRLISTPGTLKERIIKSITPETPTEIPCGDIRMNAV
Chain of D(2) dopamine receptor (P61169 whole entry): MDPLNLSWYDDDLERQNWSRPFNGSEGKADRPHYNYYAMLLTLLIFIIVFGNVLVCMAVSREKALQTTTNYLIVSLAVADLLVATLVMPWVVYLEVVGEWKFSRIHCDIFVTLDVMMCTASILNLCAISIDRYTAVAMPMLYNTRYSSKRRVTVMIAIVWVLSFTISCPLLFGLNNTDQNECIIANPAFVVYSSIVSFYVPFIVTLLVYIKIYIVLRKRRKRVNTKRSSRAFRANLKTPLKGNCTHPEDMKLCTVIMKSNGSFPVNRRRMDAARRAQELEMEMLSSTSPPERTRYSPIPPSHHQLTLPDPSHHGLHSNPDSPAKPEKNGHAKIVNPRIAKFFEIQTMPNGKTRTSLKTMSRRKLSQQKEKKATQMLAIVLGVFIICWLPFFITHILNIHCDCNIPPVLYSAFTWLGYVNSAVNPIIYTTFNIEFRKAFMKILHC

By pKi is commonly meant −log10 of the Ki, conventionally taken in molar units. The pIC50 is the IC50 on a negative log10 scale, so that one unit is a factor of ten. Low values mean a large IC50, high ones a small IC50. The Ki is a dissociation constant, usually derived from enzyme kinetics or from competition with a known ligand. Regarding `COc1cccc2c1N1CCN(C)CC1c1ccccc1C2` (racemic), the pKi in experiment [1] is 6.46; on D(2) dopamine receptor it was 7.55; at D(4) dopamine receptor it was 7.04; on D(3) dopamine receptor, 6.59. Further, the values for the pIC50 in experiment [2], in experiment [4] and in experiment [5] were 9.15, 5.75 and 5.54, respectively. Also, the Ki in experiment [3] stood at 84 nM.
As for `COc1cccc2c1N1CCN(C)C[C@@H]1c1ccccc1C2`, the pKi in experiment [1] was 6.10; on D(2) dopamine receptor it was 6.34; at D(4) dopamine receptor, 6.80; at D(3) dopamine receptor it was 5.45. In addition, the pIC50 in experiment [2] is 9.26; in experiment [4], 5.91; in experiment [5], 5.78. This compound had a Ki in experiment [3] of 205 nM.
For `COc1cccc2c1N1CCN(C)C[C@H]1c1ccccc1C2`, the pKi in experiment [1] was 6.59; at D(2) dopamine receptor, 7.70; at D(4) dopamine receptor, 7.33; on D(3) dopamine receptor, 7.00. The pIC50 in experiment [2] is 9.12; in experiment [4], 5.54; in experiment [5] it was below 5.00. Further, in experiment [3], the inhibition constant Ki is 74 nM.
